The text below walks through data of US4820703A, “PAF-antagonistic thienotriazolodiazepine compounds and pharmaceutical uses thereof” (Yoshitomi Pharmaceutical Industries Ltd., priority 1986, dated 1989).

Converted amounts (≈) assume the structure as drawn.

For one test, the system named is PAF-induced foot edema. Put plainly: Effect on PAF edema (PAF-induced foot edema in rats). The test is classed as in vivo, rats (male Donryu). The following applies: 1 hour after PAF 5 μg s.c. As to the method: The experiment was carried out according to the method of Swingle et al. described in Agents and Actions, vol. 18, p. 359 (1986). Groups of five male Donryu rats weighing about 150 g were used. One hour after the oral administration of test compound (25 ml/kg), 5 μg/0.05 ml of PAF solution was subcutaneously injected to the paw of the right hind leg. The foot volume of the hind leg was measured 1 hour after the injection. The increasing ratios of foot volume before and after PAF injection were calculated.

Test [1] concerns PAF-induced platelet aggregation. In words: Inhibitory effect on PAF-induced platelet aggregation in rabbits (in vitro test). The test is classed as cell-based. Particulars: Oryctolagus cuniculus, rabbit PRP, PAF 1.8×10^-7 M, 37° C., read-out: Inhibition of PAF-induced platelet aggregation, IC50. As to the method: Blood samples to which was added 0.1 volume of 3.8% sodium citrate were collected from rabbits. Platelet rich plasma (PRP) was prepared by centrifuging the blood sample at 200×g for 10 minutes, and platelet poor plasma (PPP) was prepared by centrifuging the remaining blood sample at 1000×g for 10 minutes.
(§1) Aggregation ability was measured with a turbidimetric device (6-channel NKK Hematracer 1, model PAT-6A) according to the method of G.V.R. Born described in J. Physiology, vol. 168, p. 178 (1963). The aggregometer was adjusted in sensitivity to give light transmission vaues of 0 and 100% for PRP and PPP, respectively. With stirring at 1000 rpm, 0.3 μl of test compound solution or vehicle was added to 0.3 ml of PRP. After the mixture was kept at 37° C. for 2 minutes, to the mixture was added 3 μl PAF (Serdary Research Lab.) at the final concentration of 1.8×10^-7 M and the light transmission was recorded for 5 minutes.
In all experiments, PAF was dissolved in ethanol at the concentration of 100 μg/ml, and, when used, diluted with 0.9% saline solution.
(§2) The inhibition percentage of test compounds on platelet aggregation were calculated from the following formula by measuring the maximal light transmission in the presence and absence of the test compounds. [formula]

Another test concerns PAF-induced lethal shock. In words: Effect on PAF-induced lethal shock in mice. The following applies: 80 μg/kg PAF i.v., 24 hours. The format is in vivo, mice (male ICR). The procedure:
The experiment was carried out according to the method of Young et al. described in Prostaglandins, vol. 30, p. […] Groups of 9 to 15 male ICR mice (Charles River) weighing 25-30 g were used. 80 μg/kg of PAF (Serdary Research Lab.) solution was intravenously administered in a lateral tail vein 1 hour after the oral administration of test compound (0.1 ml/10 g). […] Results were given as number of survivors/number of employed animals and survival rates (%) in Table 3.

Another test has as its system platelet aggregation. In words: Inhibitory effect on platelet aggregation in rabbits (ex vivo test). Also on record: species or system rabbit. Particulars: 3 animals. The procedure:
as §1, §2
Test compound was orally administered to rabbit instead of adding it to PRP as in vitro test of Experiment 1, and then the citrated blood samples (9 volumes of blood+1 volume of 3.8% sodium citrate) were collected with the passage of time. Then, the blood samples were employed to determine the inhibitory effect at 1, 3, 6 and 24 hours after the administration of test compounds, respectively, according to Experiment 1.

In a further test the test system is central system. Particulars: U.S. Pat. No. 3,904,641; cited from earlier work.
Test [2] has as its system platelet-activating factor (PAF). The following applies: literature (Japan. J. Pharmacol. 1987; EP-A 194416); cited from earlier work.
Another test has as its system benzodiazepine receptor. Particulars: well-known; cited from earlier work.
The mark [3] stands for this setting: 3 mg/kg p.o., 1 hour after administration.
Where [4] appears, read: 3 mg/kg p.o., 3 hours after administration.
Where [5] appears, read: 3 mg/kg p.o., 6 hours after administration.
Setting [6] is: 3 mg/kg p.o., 24 hours after administration.

Consider `Cc1nnc2n1-c1sc(CCc3ccc(CC(C)C)cc3)cc1C(c1ccccc1Cl)=NC2` [Compound A, 4-(2-chlorophenyl)-2-[2-(4-isobutylphenyl)ethyl]-9-methyl-6H-thieno[3,2-f][1,2,4]triazolo[4,3-a][1,4]diazepine], for which the “Inhibition (foot edema)” value is 31% with PAF-induced foot edema (0.3 mg/kg oral), 51% with PAF-induced foot edema (1 mg/kg oral) and 59% with PAF-induced foot edema (3 mg/kg oral). The 50% inhibitory concentration (IC50) in test [1] is 0.003 to 0.01 µg/mL (≈ 0.00631 to 0.021 µM). In addition, the Survival rate in the test with PAF-induced lethal shock (3.0 mg/kg p.o.) amounted to 100.0%. Besides, in the test on PAF-induced lethal shock (3.0 mg/kg p.o.), the “number of survivors/number of employed animals” value was 9/9. The “% of inhibition” value with platelet aggregation (setting [3]) is on record as 97±3%; in the test with platelet aggregation (setting [4]), 100±0%; with platelet aggregation (setting [5]) it was 100±0%; in the test on platelet aggregation (setting [6]) it was 100±0%.

Regarding `Cc1ccc(CCc2cc3c(s2)-n2c(C)nnc2CN=C3c2ccccc2Cl)cc1` [Compound B, 4-(2-chlorophenyl)-2-[2-(4-methylphenyl)ethyl]-9-methyl-6H-thieno[3,2-f][1,2,4]triazolo[4,3-a][1,4]diazepine], in test [1], the half-maximal inhibitory concentration (IC50) lay in the range of 0.01 to 0.03 µg/mL (≈ 0.0231 to 0.0693 µM).

`Cc1nnc2n1-c1sc(CCCCc3ccc(CC(C)C)cc3)cc1C(c1ccccc1Cl)=NC2` [Compound C, 4-(2-chlorophenyl)-2-[4-(4-isobutylphenyl)butyl]-9-methyl-6H-thieno[3,2-f][1,2,4]triazolo[4,3-a][1,4]diazepine]: the 50% inhibitory concentration (IC50) in test [1] fell in the range of 0.03 to 0.1 µg/mL (≈ 0.0596 to 0.199 µM). Besides, in the test with PAF-induced lethal shock (3.0 mg/kg p.o.), the Survival rate came out at 100.0% and the “number of survivors/number of employed animals” value was 9/9.

As to `COc1ccc(CCc2cc3c(s2)-n2c(C)nnc2CN=C3c2ccccc2Cl)cc1` [Compound D, 4-(2-chlorophenyl)-2-[2-(4-methoxyphenyl)ethyl]-9-methyl-6H-thieno[3,2-f][1,2,4]triazolo[4,3-a][1,4]diazepine], in test [1], the half-inhibitory concentration (IC50) lay within 0.01 to 0.03 µg/mL (≈ 0.0223 to 0.0668 µM).

`CCCCc1ccc(CCc2cc3c(s2)-n2c(C)nnc2CN=C3c2ccccc2Cl)cc1` [Compound E, 4-(2-chlorophenyl)-2-[2-(4-n-butylphenyl)ethyl]-9-methyl-6H-thieno[3,2-f][1,2,4]triazolo[4,3-a][1,4]diazepine]: the “Inhibition (foot edema)” value with PAF-induced foot edema (0.1 mg/kg oral) worked out at 55%; with PAF-induced foot edema (1 mg/kg oral), 78%; with PAF-induced foot edema (3 mg/kg oral), 75%. Besides, in test [1], the IC50 came out at 0.01 µg/mL (≈ 0.021 µM). Moreover, the Survival rate in the test with PAF-induced lethal shock (1.0 mg/kg p.o.) came out at 70.0%; with PAF-induced lethal shock (3.0 mg/kg p.o.), 100.0%. Besides, the entries for the “number of survivors/number of employed animals” value with PAF-induced lethal shock (1.0 mg/kg p.o.) and in the test on PAF-induced lethal shock (3.0 mg/kg p.o.) were 7/10 and 10/10, respectively. For the same compound, the “% of inhibition” value with platelet aggregation (setting [3]) was 100±0%; in the test on platelet aggregation (setting [4]), 100±0%; in the test with platelet aggregation (setting [5]) it was 100±0%; in the test on platelet aggregation (setting [6]), 94±6%.

Consider `Cc1nnc2n1-c1sc(CCc3ccc(-c4ccccc4)cc3)cc1C(c1ccccc1Cl)=NC2` [Compound F, 4-(2-chlorophenyl)-2-[2-(4-phenylphenyl)ethyl]-9-methyl-6H-thieno[3,2-f][1,2,4]triazolo[4,3-a][1,4]diazepine], for which the IC50 in test [1] lay in the range of 0.01 to 0.03 µg/mL (≈ 0.0202 to 0.0606 µM).

Turning to `Cc1nnc2n1-c1sc(CCc3ccccc3)cc1C(c1ccccc1Cl)=NC2` [Compound G, 4-(2-chlorophenyl)-2-(2-phenylethyl)-9-methyl-6H-thieno[3,2-f][1,2,4]triazolo[4,3-a][1,4]diazepine], the IC50 in test [1] was 0.03 to 0.1 µg/mL (≈ 0.0716 to 0.239 µM).

Consider `Cc1nnc2n1-c1sc(Cc3ccc(CC(C)C)cc3)cc1C(c1ccccc1Cl)=NC2` [Compound H, 4-(2-chlorophenyl)-2-(4-isobutylbenzyl)-9-methyl-6H-thieno[3,2-f][1,2,4]triazolo[4,3-a][1,4]diazepine], for which the IC50 in test [1] was in the range of 0.003 to 0.01 µg/mL (≈ 0.00651 to 0.0217 µM).

`Cc1nnc2n1-c1sc(CCCc3ccc(CC(C)C)cc3)cc1C(c1ccccc1Cl)=NC2` [Compound I, 4-(2-chlorophenyl)-2-[3-(4-isobutylphenyl)propyl]9-methyl-6H-thieno[3,2-f][1,2,4]triazolo[4,3-a][1,4]diazepine]: in test [1], the IC50 stood at 0.01 µg/mL (≈ 0.0204 µM).

Turning to `CCc1nnc2n1-c1sc(CCc3ccc(CC(C)C)cc3)cc1C(c1ccccc1Cl)=NC2` [Compound J, 4-(2-chlorophenyl)-9-ethyl-2-[2-(4-isobutylphenyl)ethyl]-6H-thieno[3,2-f][1,2,4]triazolo[4,3-a][1,4]diazepine], in test [1], the IC50 lay in the range of 0.01 to 0.03 µg/mL (≈ 0.0204 to 0.0613 µM).

On to `Cc1nnc2n1-c1sc(CCc3ccc(CC(C)C)cc3)cc1C(c1ccccc1Cl)=NC2C` (centres unmarked) [Compound K, 4-(2-chlorophenyl)-2-[2-(4-isobutylphenyl)ethyl]-6,9-dimethyl-6H-thieno[3,2-f][1,2,4]triazolo[4,3-a][1,4]diazepine], for which the IC50 in test [1] is 0.01 to 0.03 µg/mL (≈ 0.0204 to 0.0613 µM).

For `CCCCc1ccc(CCc2cc3c(s2)-n2c(C)nnc2C(C)N=C3c2ccccc2Cl)cc1` (centres unmarked) [Compound L, 4-(2-chlorophenyl)-2-[2-(4-n-butylphenyl)ethyl]6,9-dimethyl-6H-thieno[3,2-f][1,2,4]triazolo[4,3-a][1,4]diazepine], the IC50 in test [1] lay in the range of 0.01 to 0.03 µg/mL (≈ 0.0204 to 0.0613 µM).

As to `CCc1cc2c(s1)-n1c(C)nnc1CN=C2c1ccccc1Cl` [Etizolam, 6-(o-chlorophenyl)-8-ethyl-1-methyl-4H-s-triazolo[3,4-c]thieno[2,3-e][1,4]diazepine, reference compound], the “pharmacological activities against the central nervous system” value with central system was “antianxiety or anticonvulsant activities”. The “Inhibition (foot edema)” value with PAF-induced foot edema (10 mg/kg oral) was 38%; in the test with PAF-induced foot edema (25 mg/kg oral), 54%. For the same compound, the “antagonistic activity on PAF” value in test [2] is given as “exhibits antagonistic activity”. The IC50 in test [1] is 1.3 µg/mL (≈ 3.79 µM). The “% of inhibition” value in the test with platelet aggregation (10 mg/kg p.o., printed once for the 1, 3, 6, 24 hours columns) was “no effect”. Further, in the test on benzodiazepine receptor, the “affinity for the benzodiazepine receptor” value is recorded as “high affinity”.

The term IC50 denotes the concentration that inhibits the measured activity by half.
